Results published in PubChem BioAssay (NCI).
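1) Cells in 96-well plates. 2) Compound, 48 h, 5 concentrations. 3) Linear interpolation between surrounding doses. 4) Unreached endpoint = highest concentration. GI50 is the concentration that inhibits growth by half. TGI: total growth inhibition.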

What was measured:
Test in all cases: inhibition of tumour cell growth, NCI panel, 48 h
[1] = test system: CCRF-CEM leukemia
[2] = test system: HCT-116 colon
[3] = test system: HCT-15 colon
[4] = test system: KM12 colon
[5] = test system: M14 melanoma
[6] = test system: MDA-MB-231 breast
[7] = test system: OVCAR-3 ovarian
[8] = test system: SK-OV-3 ovarian
[9] = test system: SR leukemia
[10] = test system: UACC-257 melanoma

**Q.** For CC1CCC(n2c3cnccc3c3cnc(Nc4ccc5c(n4)CCN(C(=O)CO)C5)nc32)CC1 (stereo not given), which GI50 [1] is on record?
**A.** 448 nM

**Q.** What about the TGI [1] of the same compound?
**A.** > 100 µM

**Q.** And the GI50 [2]?
**A.** 462 nM

**Q.** And the TGI [2]?
**A.** > 100 µM

**Q.** What about the GI50 [3] of the same compound?
**A.** 418 nM

**Q.** What about the TGI [3] of the same compound?
**A.** > 100 µM

**Q.** And the GI50 [4]?
**A.** 81.2 nM

**Q.** And the TGI [4]?
**A.** > 100 µM

**Q.** And the GI50 [5]?
**A.** 681 nM

**Q.** And the TGI [5]?
**A.** > 100 µM

**Q.** And the GI50 [6]?
**A.** 1380 nM

**Q.** What about the TGI [6] of the same compound?
**A.** > 100 µM

**Q.** And the GI50 [7]?
**A.** > 100 µM

**Q.** What about the TGI [7] of the same compound?
**A.** > 100 µM

**Q.** What about the GI50 [8] of the same compound?
**A.** > 100 µM

**Q.** What about the TGI [8] of the same compound?
**A.** > 100 µM

**Q.** And the GI50 [9]?
**A.** 239 nM

**Q.** What about the TGI [9] of the same compound?
**A.** > 100 µM

**Q.** What about the GI50 [10] of the same compound?
**A.** > 100 µM

**Q.** What about the TGI [10] of the same compound?
**A.** > 100 µM
